Laboratory results from patent US20230233144A1, “Method for Determining Medication Adherence and Taggants Therefo” (The Regents of the University of Colorado, A Body Corporate, priority 2021, published 2023).
Like-named read-outs stand apart in the source and are kept apart here.

How the values were obtained:
[1] = Daily 5+ ATP to rats for six days, 5+ ATP/1+ ATP ratio in dried blood spots by mass spectrometry; settings: rat, red blood cells in dried blood spots, 100 mcg, in vivo ATP pool
Description: Once each day, blood spot samples were taken from each rat and dried.
The in vivo ATP pool is large, the half-life of ATP is relatively long, 3 days in rats, corresponding to about 10 days in humans.

[2] = ATP half-life corresponding value in humans; settings: human, in vivo, corresponding to the rat value
Description: The in vivo ATP pool is large, the half-life of ATP is relatively long, 3 days in rats, corresponding to about 10 days in humans. […] Given the long half-life of ATP, the measurement for gradients of adherence is analogous to hemoglobin A1C as a measure of gradients of glucose exposure over the preceding months.

[3] = in vivo
Description: Example 2: An assay for a tenofovir (a PrEP drug) anabolite, tenofovir-diphosphate in red blood cells, which may be collected in dried blood spots (DBS), is disclosed as an adherence assessment. […] This enables assessment of cumulative dosing, indicative of degrees or gradients of adherence, over the preceding 1-2 months for tenofovir-based PrEP. This is analogous to how hemoglobin A1C works for cumulative glucose exposure. […] FIG. 3 illustrates how taggant tenofovir diphosphate concentration in dried blood spots is used in clinical trials to correlate and interpret medication adherence based upon TFV-DP concentration in DBS.

| half-life [1] [h] | half-life [2] [h] | half-life ([3]; human) [h] | accumulation from a single dose to steady-state [3] [fold] | time of build up in DBS until steady-state plateau [3] | SMILES |
| --- | --- | --- | --- | --- | --- |
| 72 | ~240 | – | – | – | Nc1ncnc2c1ncn2[C@@H]1O[C@H](COP(=O)(O)OP(=O)(O)OP(=O)(O)O)[C@@H](O)[C@H]1O [ATP, adenosine triphosphate] |
| – | – | 408 | 25 | approximately 60 days | CC(Cn1cnc2c(N)ncnc21)OCP(=O)(O)OP(=O)(O)OP(=O)(O)O (stereo in doubt) [TFV-DP, tenofovir-diphosphate] |
